Test results from patent US20130143929A1, “FUNGICIDAL IMIDAZOLES” (EI DU PONT DE NEMOURS AND COMPANY, priority 2010, published 2013).
Marks after values point to notes of the source that are not given here.

Assays:
Type in all cases: in vivo
[1] = test system: Botrytis cinerea (the causal agent of tomato Botrytis); test: Test C: tomato Botrytis, preventive spray on tomato seedlings, visual disease rating; settings: tomato Botrytis, preventive spray on tomato seedlings
Procedure, shortened: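 Preventive test: B. cinerea spore inoculation one day after tomato seedlings were sprayed to run-off with compound suspended in 50/50 acetone–water plus 250 ppm surfactant. Plants held 48 h at 20° C in saturated air, then 3 days at 24° C; visual ratings scored 100 (full control) to 0 versus controls; some entries used 40 ppm.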

[2] = test system: Septoria tritici (the causal agent of wheat leaf blotch); test: Test B: wheat leaf blotch, preventive spray on wheat seedlings, visual disease rating; settings: wheat leaf blotch, preventive spray on wheat seedlings
Procedure, shortened: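 Preventive test: Septoria tritici spores applied one day after run-off spraying of seedlings (200 ppm equals 800 g/ha; some tests 40 ppm). After 48 h at 24 °C saturated atmosphere and 19 days at 20 °C, disease scored visually as % control relative to untreated plants.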

[3] = test system: Blumeria graminis f. sp. tritici (also known as Erysiphe graminis f. sp. tritici, the causal agent of wheat powdery mildew); test: Test D: wheat powdery mildew, preventive spray on wheat seedlings, visual disease rating; settings: wheat powdery mildew, preventive spray on wheat seedlings
Procedure, shortened: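 Preventive test: seedlings sprayed to run-off and inoculated with powdery mildew spores one day later. Suspensions were made in 50/50 acetone/water with 250 ppm Trem 014 surfactant (200 ppm equals 800 g/ha). Visual ratings after 8 days at 20 °C give percent disease control versus controls.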

[4] = test system: Puccinia recondite f. sp. tritici (the causal agent of wheat leaf rust); test: Test A: wheat leaf rust, preventive spray on wheat seedlings, visual disease rating; settings: wheat leaf rust, preventive spray on wheat seedlings
Procedure, shortened: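 This was a preventive test: Puccinia recondite f. sp. tritici inoculum was applied one day after compound spray to run-off. Test suspensions were made in 50/50 acetone/water with 250 ppm surfactant, at 200 ppm (800 g/ha equivalent) or 40 ppm. Visual ratings of % disease control relative to controls were made after 24 h of saturated humidity and 7 growth-chamber days, all at 20° C.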

[5] = no asterisk (standard test suspension concentration, not 40 ppm)
[6] = asterisk: 40 ppm test suspension

Row | SMILES | Test C rating (100 = 100% disease control, 0 = no disease control relative to the controls) [1, 5] | Test B rating (100 = 100% disease control, 0 = no disease control relative to the controls) [2, 5] | Test D rating (100 = 100% disease control, 0 = no disease control relative to the controls) [3, 5] | Test A rating (100 = 100% disease control, 0 = no disease control relative to the controls) [4, 5] | Test C rating (100 = 100% disease control, 0 = no disease control relative to the controls) [1, 6] | Test B rating (100 = 100% disease control, 0 = no disease control relative to the controls) [2, 6] | Test D rating (100 = 100% disease control, 0 = no disease control relative to the controls) [3, 6] | Test A rating (100 = 100% disease control, 0 = no disease control relative to the controls) [4, 6]
1 | Cc1ncc(C(O)c2ccc(F)cc2)n1-c1c(F)cccc1F (stereo not drawn) [compound 132] | 41% | 100% | 0% | 99% |  |  |  | 
2 | Cc1nc(Br)c(C(O)c2ccc(F)cc2)n1-c1c(F)cccc1F (stereo not drawn) [compound 133] |  |  |  |  | 100* % | 100* % | 64* % | 100* %
3 | Cc1nc(Br)c(C(O)c2ccc(F)cc2Cl)n1-c1c(F)cccc1Br (stereo not drawn) [compound 134] | 100% | 100% | 98% | 100% |  |  |  | 
4 | Cc1nc(Br)c(C(O)c2ccc(F)cc2Cl)n1-c1c(F)cc(F)cc1Br (stereo not drawn) [compound 136] | 100% | 100% | 79% | 100% |  |  |  | 
5 | Cc1nc(Cl)c(C(O)c2ccc(F)cc2Cl)n1-c1c(F)cc(F)cc1Br (stereo not drawn) [compound 137] |  |  |  |  | 100* % | 100* % | 87* % | 100* %
6 | Cc1cc(F)ccc1C(O)c1cnc(C)n1-c1ccc(F)cc1Br (stereo not drawn) [compound 138] | 0% | 28% | 0% | 89% |  |  |  | 
7 | Cc1ncc(C(O)c2ccc(Cl)cc2)n1-c1ccc(F)cc1Br (stereo not drawn) [compound 139] | 0% | 49% | 0% | 86% |  |  |  | 
8 | Cc1nc(Br)c(C(O)c2c(F)cccc2F)n1-c1ccc(F)cc1Cl (stereo not drawn) [compound 140] | 100% | 100% | 50% | 100% |  |  |  | 
9 | Cc1nc(Br)c(C(O)c2c(F)cc(F)cc2F)n1-c1ccc(F)cc1Cl (stereo not drawn) [compound 141] | 99% | 100% | 96% | 100% |  |  |  | 
10 | Cc1nc(Br)c(C(O)c2ccc(F)cc2Cl)n1-c1ccc(F)cc1Cl (stereo not drawn) [compound 142] | 99% | 100% | 71% | 100% |  |  |  | 
11 | COc1ccc(C(O)c2c(Cl)nc(C)n2-c2c(F)cccc2F)c(Cl)c1 (stereo not drawn) [compound 143] |  |  |  |  | 99* % | 100* % | 99* % | 100* %
12 | COc1ccc(C(O)c2c(Br)nc(C)n2-c2c(F)cccc2F)c(Cl)c1 (stereo not drawn) [compound 144] |  |  |  |  | 100* % | 100* % | 99* % | 100* %
